This is an account of results in US20250179078A1, “INHIBITORS OF NLRP3” (PTC THERAPEUTICS, INC., priority 2022, published 2025).

This experiment concerns the target T1, NLRP3 (Homo sapiens, UniProt Q96P20).
T1 construct: host or cells: THP-1 cells differentiated with PMA
The experiment is described as follows: IL-1β Secretion Assay (NLRP3-dependent IL1β secretion in THP1 cells). Particulars: PMA-differentiated THP-1 cells; compounds incubated 20 h; 2.5 μM Nigericin 3 h; HTRF IL-1β readout; read-out: IC50 IL-1β Inhibition. The experiment is classed as cell-based. An outline of the steps:
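THP-1 cells differentiated with 100 ng/mL PMA for 24 h, then given compound (7-point 3-fold series, 1:200 from DMSO) for 20 h in RPMI+5% FBS. NLRP3 activated with 2.5 μM nigericin for 3 h; secreted IL-1β measured by HTRF; IC50 from logistic fit of % inhibition.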

pIC50: −log10 of the molar value. Some results are limits rather than exact numbers.

T1 sequence (Q96P20 whole entry): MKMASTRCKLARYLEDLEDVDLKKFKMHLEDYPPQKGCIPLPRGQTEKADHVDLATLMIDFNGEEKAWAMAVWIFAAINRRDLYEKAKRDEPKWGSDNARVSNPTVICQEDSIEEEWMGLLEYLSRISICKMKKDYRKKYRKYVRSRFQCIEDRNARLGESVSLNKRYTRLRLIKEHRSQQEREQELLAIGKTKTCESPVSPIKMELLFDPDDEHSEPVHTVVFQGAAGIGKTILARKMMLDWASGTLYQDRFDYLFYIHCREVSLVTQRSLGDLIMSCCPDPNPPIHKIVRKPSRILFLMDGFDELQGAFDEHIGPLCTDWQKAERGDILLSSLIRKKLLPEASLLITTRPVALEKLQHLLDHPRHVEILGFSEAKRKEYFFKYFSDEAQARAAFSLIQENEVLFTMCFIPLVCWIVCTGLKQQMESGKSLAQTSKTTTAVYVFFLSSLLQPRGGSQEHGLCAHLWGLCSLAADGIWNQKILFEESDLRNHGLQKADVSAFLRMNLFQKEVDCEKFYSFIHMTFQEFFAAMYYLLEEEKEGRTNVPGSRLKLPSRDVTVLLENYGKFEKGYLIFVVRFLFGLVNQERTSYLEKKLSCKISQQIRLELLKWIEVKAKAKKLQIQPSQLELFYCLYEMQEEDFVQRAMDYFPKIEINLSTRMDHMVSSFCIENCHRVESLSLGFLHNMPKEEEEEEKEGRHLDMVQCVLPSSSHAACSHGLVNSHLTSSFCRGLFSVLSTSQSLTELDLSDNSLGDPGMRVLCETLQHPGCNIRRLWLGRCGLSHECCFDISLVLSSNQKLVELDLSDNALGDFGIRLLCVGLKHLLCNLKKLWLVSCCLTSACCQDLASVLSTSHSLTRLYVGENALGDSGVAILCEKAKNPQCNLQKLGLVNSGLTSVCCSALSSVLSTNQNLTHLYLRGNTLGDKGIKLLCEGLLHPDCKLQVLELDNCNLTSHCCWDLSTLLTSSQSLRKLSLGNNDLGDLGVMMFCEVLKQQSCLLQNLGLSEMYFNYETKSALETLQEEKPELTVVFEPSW

Regarding `COc1ccc(-c2nnc(N[C@@H]3CCCN(C)C3)n3ccc(F)c23)c(OC(F)(F)F)c1` [Compound 39, 8-fluoro-1-[4-methoxy-2-(trifluoromethoxy)phenyl]-N-[(3R)-1-methylpiperidin-3-yl]pyrrolo[1,2-d][1,2,4]triazin-4-amine], the pIC50 was 8.00 to 9.00. The result for `COc1ccc(-c2nnc(N[C@H]3C[C@@](C)(O)C3)n3cncc23)c(C(F)(F)C(F)(F)F)c1` [Compound 315, (1s,3s)-3-({1-[4-methoxy-2-(pentafluoroethyl)phenyl]imidazo[1,5-d][1,2,4]triazin-4-yl}amino)-1-methylcyclobutan-1-ol] reads 6.52 to 7.00. Take `COc1ccc(-c2nnc(N[C@H]3C[C@@](C)(O)C3)n3nc(C)cc23)c(CC(F)(F)F)c1` [Compound 387, (1s,3s)-3-({4-[4-methoxy-2-(2,2,2-trifluoroethyl)phenyl]-2-methylpyrazolo[1,5-d][1,2,4]triazin-7-yl}amino)-1-methylcyclobutan-1-ol]: the pIC50 is 8.00 to 9.00.

Take `CCN1CCC[C@@H](Nc2nnc(-c3ccc(C)cc3SC)c3cc(C)nn23)C1` [Compound 367, N-[(3R)-1-ethylpiperidin-3-yl]-2-methyl-4-[4-methyl-2-(methylsulfanyl)phenyl]pyrazolo[1,5-d][1,2,4]triazin-7-amine]: the negative logarithm of the IC50 (pIC50) was 8.00 to 9.00. In the case of `Cc1ccc(-c2nnc(NC(C)c3cccc(O)c3)n3cncc23)c(CC(F)(F)F)c1` (stereo not shown) [Compound 297, 3-[1-({1-[4-methyl-2-(2,2,2-trifluoroethyl)phenyl]imidazo[1,5-d][1,2,4]triazin-4-yl}amino)ethyl]phenol], the pIC50 was 8.00 to 9.00. The result for `OCCN1CCC[C@@H](Nc2nnc(-c3ccc(OC(F)F)cc3OC(F)(F)F)c3cccn23)C1` [Compound 86, 2-[(3R)-3-({1-[4-(difluoromethoxy)-2-(trifluoromethoxy)phenyl]pyrrolo[1,2-d][1,2,4]triazin-4-yl}amino)piperidin-1-yl]ethan-1-ol] reads greater than 9.00; that for `COc1ccc(-c2nnc(N[C@H]3C[C@@](C)(O)C3)n3cc(C)cc23)c(OC(F)(F)F)c1` [Compound 108, (1s,3s)-3-({1-[4-methoxy-2-(trifluoromethoxy)phenyl]-7-methylpyrrolo[1,2-d][1,2,4]triazin-4-yl}amino)-1-methylcyclobutan-1-ol], 8.00 to 9.00.

For `COc1ccc(-c2nnc(N[C@H]3C[C@](C)(CO)C3)n3cncc23)c(CC(F)(F)F)c1` [Compound 336, [(1r,3r)-3-({1-[4-methoxy-2-(2,2,2-trifluoroethyl)phenyl]imidazo[1,5-d][1,2,4]triazin-4-yl}amino)-1-methylcyclobutyl]methanol], the pIC50 was 7.00 to 8.00. `Cc1ccc(-c2nnc(N[C@@H]3CCCN(C)C3)n3cncc23)c(OC(F)F)c1` [Compound 202, 1-[2-(difluoromethoxy)-4-methylphenyl]-N-[(3R)-1-methylpiperidin-3-yl]imidazo[1,5-d][1,2,4]triazin-4-amine]: the negative-log IC50 (pIC50) was 8.00 to 9.00.

With `COc1ccc(-c2nnc(N[C@@H]3CCCC[C@H]3O)n3cccc23)c(OC(F)F)c1` [Compound 177, (1R,2R)-2-({1-[2-(difluoromethoxy)-4-methoxyphenyl]pyrrolo[1,2-d][1,2,4]triazin-4-yl}amino)cyclohexan-1-ol], the negative-log IC50 (pIC50) was 7.00 to 8.00. The result for `COCC1CC(Nc2nnc(-c3ccc(OC)cc3CC(F)(F)F)c3cncn23)C1` (stereo not shown) [Compound 326, N-[3-(methoxymethyl)cyclobutyl]-1-[4-methoxy-2-(2,2,2-trifluoroethyl)phenyl]imidazo[1,5-d][1,2,4]triazin-4-amine] reads 7.00 to 8.00. The result for `Cc1ccc(-c2nnc(N[C@@H]3CCCC[C@H]3O)n3cccc23)c(OC(F)F)c1` [Compound 136, (1R,2R)-2-({1-[2-(difluoromethoxy)-4-methylphenyl]pyrrolo[1,2-d][1,2,4]triazin-4-yl}amino)cyclohexan-1-ol] reads 8.00 to 9.00.

For `OC[C@H]1C[C@@H](Nc2nnc(-c3ccc(C(F)(F)F)cc3OC(F)(F)F)c3cccn23)C1` [Compound 141, [(1s,3s)-3-({1-[2-(trifluoromethoxy)-4-(trifluoromethyl)phenyl]pyrrolo[1,2-d][1,2,4]triazin-4-yl}amino)cyclobutyl]methanol], the pIC50 is 8.00 to 9.00.

With `COc1ccc(-c2nnc(N[C@H]3C[C@@](C)(CO)C3)n3cncc23)c(OC(F)(F)F)c1` [Compound 342, [(1s,3s)-3-({1-[4-methoxy-2-(trifluoromethoxy)phenyl]imidazo[1,5-d][1,2,4]triazin-4-yl}amino)-1-methylcyclobutyl]methanol], the pIC50 was 7.00 to 8.00.

For `COc1ccc(-c2nnc(NC3CCNC3=O)n3cncc23)c(OC(F)(F)F)c1` (stereo not shown) [Compound 284, 3-({1-[4-methoxy-2-(trifluoromethoxy)phenyl]imidazo[1,5-d][1,2,4]triazin-4-yl}amino)pyrrolidin-2-one], the pIC50 was 7.00 to 8.00.

`CC(C)CN1CCC[C@@H](Nc2nnc(-c3ccc(C(F)(F)F)cc3C(F)(F)F)c3cccn23)C1` [Compound 10, 1-[2,4-bis(trifluoromethyl)phenyl]-N-[(3R)-1-(2-methylpropyl)piperidin-3-yl]pyrrolo[1,2-d][1,2,4]triazin-4-amine]: the pIC50 is 8.00 to 9.00. The result for `O=C1NCCC1Nc1nnc(-c2ccc(OC(F)F)cc2OC(F)(F)F)c2cncn12` (stereo not shown) [Compound 260, 3-({1-[4-(difluoromethoxy)-2-(trifluoromethoxy)phenyl]imidazo[1,5-d][1,2,4]triazin-4-yl}amino)pyrrolidin-2-one] reads 8.00 to 9.00; that for `O[C@@H]1CCCC[C@H]1Nc1nnc(-c2ccc(C(F)(F)F)cc2OC(F)(F)F)c2ccnn12` [Compound 398, (1R,2R)-2-({4-[2-(trifluoromethoxy)-4-(trifluoromethyl)phenyl]pyrazolo[1,5-d][1,2,4]triazin-7-yl}amino)cyclohexan-1-ol], 8.00 to 9.00. The figure for `CCN1CCC[C@@H](Nc2nnc(-c3ccc(Cl)cc3Cl)c3cc(C)nn23)C1` [Compound 376, 4-(2,4-dichlorophenyl)-N-[(3R)-1-ethylpiperidin-3-yl]-2-methylpyrazolo[1,5-d][1,2,4]triazin-7-amine] is 8.00 to 9.00; for `COc1ccc(-c2nnc(NC3CCNC3=O)n3cncc23)c(CC(F)(F)F)c1` (stereo not shown) [Compound 238, 3-({1-[4-methoxy-2-(2,2,2-trifluoroethyl)phenyl]imidazo[1,5-d][1,2,4]triazin-4-yl}amino)pyrrolidin-2-one] it is 8.00 to 9.00; for `CN1CCCC(Nc2nnc(-c3ccc(C(F)(F)F)cc3C(F)(F)F)c3cncn23)C1=O` (stereo not shown) [Compound 272, 3-({1-[2,4-bis(trifluoromethyl)phenyl]imidazo[1,5-d][1,2,4]triazin-4-yl}amino)-1-methylpiperidin-2-one] it is 8.00 to 9.00. The result for `CC(CO)N1CCC[C@@H](Nc2nnc(-c3ccc(C(F)(F)F)cc3OC(F)F)c3cccn23)C1` (stereo partly drawn) [Compound 22, 2-[(3R)-3-({1-[2-(difluoromethoxy)-4-(trifluoromethyl)phenyl]pyrrolo[1,2-d][1,2,4]triazin-4-yl}amino)piperidin-1-yl]propan-1-ol] reads greater than 9.00. Take `C[C@H](Nc1nnc(-c2ccc(C(F)(F)F)cc2OC(F)F)c2cccn12)c1cccc(O)c1` (single isomer, unassigned) [Compound 103]: the pIC50 is 7.00 to 8.00. With `OCCN1CCC[C@@H](Nc2nnc(-c3ccc(C(F)(F)F)cc3C(F)(F)F)c3c(F)ccn23)C1` [Compound 30, 2-[(3R)-3-({1-[2,4-bis(trifluoromethyl)phenyl]-8-fluoropyrrolo[1,2-d][1,2,4]triazin-4-yl}amino)piperidin-1-yl]ethan-1-ol], the negative-log IC50 (pIC50) is 8.00 to 9.00. Consider `CC(C)(O)C1CC(Nc2nnc(-c3ccc(C(F)(F)F)cc3OC(F)(F)F)c3cncn23)C1` (stereo not shown) [Compound 325, 2-[3-({1-[2-(trifluoromethoxy)-4-(trifluoromethyl)phenyl]imidazo[1,5-d][1,2,4]triazin-4-yl}amino)cyclobutyl]propan-2-ol], for which the pIC50 is 7.00 to 8.00.

As for `CCN1C[C@H](F)C[C@@H](Nc2nnc(-c3ccc(Br)cc3OC(F)F)c3cncn23)C1` [Compound 196, 1-[4-bromo-2-(difluoromethoxy)phenyl]-N-[(3R,5R)-1-ethyl-5-fluoropiperidin-3-yl]imidazo[1,5-d][1,2,4]triazin-4-amine], the pIC50 is greater than 9.00.

As to `COc1ccc(-c2nnc(N[C@@H]3CCCN(C)C3)n3cccc23)c(CC(F)(F)F)c1` [Compound 145, 1-[4-methoxy-2-(2,2,2-trifluoroethyl)phenyl]-N-[(3R)-1-methylpiperidin-3-yl]pyrrolo[1,2-d][1,2,4]triazin-4-amine], the pIC50 is greater than 9.00. The result for `COc1ccc(-c2nnc(N[C@@H]3CCCN(C)C3)n3cc(C)cc23)c(OC(F)F)c1` [Compound 12, 1-[2-(difluoromethoxy)-4-methoxyphenyl]-7-methyl-N-[(3R)-1-methylpiperidin-3-yl]pyrrolo[1,2-d][1,2,4]triazin-4-amine] reads 8.00 to 9.00; that for `COc1ccc(-c2nnc(N[C@@H]3CCCC[C@@]3(C)O)n3cccc23)c(OC(F)(F)F)c1` (single isomer, unassigned) [Compound 181], no more than 6.52. The figure for `O[C@@H]1CCCC[C@@H]1Nc1nnc(-c2ccc(C(F)(F)F)cc2OC(F)F)c2cccn12` [Compound 79, (1R,2S)-2-({1-[2-(difluoromethoxy)-4-(trifluoromethyl)phenyl]pyrrolo[1,2-d][1,2,4]triazin-4-yl}amino)cyclohexan-1-ol] is 7.00 to 8.00; for `COc1ccc(-c2nnc(N[C@@H]3CCCN(C)C3)n3cncc23)c(C(F)(F)C(F)(F)F)c1` [Compound 281, 1-[4-methoxy-2-(pentafluoroethyl)phenyl]-N-[(3R)-1-methylpiperidin-3-yl]imidazo[1,5-d][1,2,4]triazin-4-amine] it is 8.00 to 9.00.
